Data on nine compounds can be found in patent US8980848B2, “Flavonoid dimers and their use” (The Hong Kong Polytechnic University, priority 2010, dated 2015).

One series relates to Lm50122 promastigotes. Description: In vitro anti-promastigote activity, Lm50122. The class given is cell-based, Leishmania major. Conditions: read-out: Anti-promastigotes activity (IC50, μM) Lm50122. As to the method:
(§1) Cell Lines and Cell Culture. Promastigotes of Leishmania donovani (wild type LdAG83, pentamidine-resistant LdAG83-PentR50, and SSG-resistant Ld39) and Leishmania major [MHOM/IL/67/JERICHO II (Lm50122), from ATCC] were used in this study.
(§2) In Vitro Anti-Promastigote Activity. The viability of promastigotes was determined by the Cell Titer 96° Aqueous Assay (Promega) that employs a tetrazolium compound (MTS, 2-(4,5-Dimethylthiazol-2-yl-)-5-[3-(carboxymethoxy)phenyl]-2-(4-sulfophenyl)-2H-tetrazolium) and electron coupling reagent, phenazine methosulfate (PMS).^7 Promastigotes were seeded into 96-well flat bottom microtiter plate at 1×10^5 cells per well in a final volume of 100 μL medium and incubated with a series concentration of synthetic flavonoid dimers or known antileishmanials. The parasites were incubated at 27° C. for 72 hrs. Fresh solution of 2 mg/mL MTS and 0.92 mg/mL PMS were prepared in a ratio of 20:1 (MTS:PMS). After 72 hrs incubation, 10 μL of MTS:PMS mixture was added into each well of microtiter plate. The plate was then incubated at 27° C. for 4 hrs for color development. After 4 hrs incubation, the OD values were determined at 490 nm using automatic microtiter plate reader (Bio-Rad).

The subject of the next series is PEM cells. Briefly: Cytotoxicity, primary mouse peritoneal elicited macrophage (PEM). The class given is cell-based. Conditions: cytotoxicity, primary mouse macrophage, 72 hrs. As to the method: (§3) (a) Mouse Macrophage Raw 264.7 and Primary Mouse PEM Cells. The cytotoxicity assay of reference antileishmanial compounds and the compounds of this invention was performed against mouse macrophage cell line, Raw 264.7 and primary mouse PEM cells in order to calculate the therapeutic index (IC50 value for cytotoxicity of the compounds divided by IC50 value for antileishmanial activity of the compounds). The cells were grown in supplemented DMEM media in an atmosphere of 95% air with 5% CO2 at 37° C. In brief, Raw264.7 cells and PEM cells were seeded into 96-well flat bottom microtiter plate at 1×10^4cells and 2×10^4 cells per well in a final volume of 100 μL media, respectively. A graded dose of flavonoid dimers or antileishmanials was added into wells. The plate was incubated at 37° C. for 72 hrs at the atmosphere 5% CO2 in the air. The % of survivors was determined.

Series [1] concerns LdAG83 promastigotes (wild type). Briefly: In vitro anti-promastigote activity, LdAG83. The class given is cell-based, Leishmania donovani. Conditions: read-out: Anti-promastigotes activity (IC50, μM) LdAG83. As to the method: as §1, §2
A further series deals with Raw264.7 cells. Description: Cytotoxicity, mouse macrophage Raw264.7. In kind it is cell-based. As to the method: as §3
The subject of another series is Ld39 amastigotes. Description: In vitro anti-amastigote activity, Ld39 amastigotes in mouse PEM. Conditions: read-out: IC50 against Ld39 amastigotes.
Series [2] has as its system Ld39 promastigotes (SSG-resistant). Briefly: In vitro anti-promastigote activity, Ld39. In kind it is cell-based, Leishmania donovani. Conditions: read-out: Anti-promastigotes activity (IC50, μM) Ld39. As to the method:
as §1, §2

Series [3] relates to LdAG83PentR50 promastigotes (pentamidine-resistant). Description: microbe, parasite or virus in culture. In kind it is cell-based, Leishmania donovani. Conditions: read-out: Anti-promastigotes activity (IC50, μM) LdAG83PentR50. As to the method:
as §1
No pentamidine or sodium stibogluconate was added to the L. donovani wild type (LdAG83) and L. major wild type (Lm50122). The mouse macrophage cell line, Raw264.7, was used for the determination of the relative toxicity of the compounds of the invention. […] They were maintained at 37° C. in a humidified atmosphere with 5% CO2. The cells were split constantly after a confluent monolayer has been formed. To split cells, the plate was washed briefly with PBS, treated with 0.05% trypsin-EDTA and harvested by centrifugation.
as §2

Series [4] can be described thus: Tumor cell line cytotoxicity of flavonoid dimers, LCC6. In kind it is cell-based, human. The following applies: human, LCC6 cells, IC50 of compound alone. A digest of the protocol:
(§4)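 LCC6, LCC6MDR and L929 cells seeded at 1×10^4 cells/well and exposed to graded doses of flavonoid dimers. Incubation 72 hrs at 37° C., 5% CO2. Read-out: % survivors.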

Series [5] can be described thus: Tumor cell line cytotoxicity of flavonoid dimers, LCC6MDR. The class given is cell-based, human. The following applies: human, LCC6MDR cells, IC50 of compound alone. In a few lines: as §4
A short description of series [6]: Cytotoxicity of flavonoid dimers, L929 mouse fibroblast. In kind it is cell-based. Conditions: mouse, L929 fibroblast cells, IC50 of compound alone, 72 hrs, mouse fibroblast. A digest of the protocol: as §4
Series [7] is described as follows: Cytotoxicity over LCC6, LCC6MDR and L929 cell lines. In kind it is cell-based, human, mouse. The following applies: human, cancer lines LCC6, LCC6MDR and/or L929. As to the method:
(b) Tumor Cell Line Cytotoxicity. The tumor cytotoxicity assays of flavonoid dimers were performed against LCC6, LCC6MDR and L929 cell lines. The cells were grown in supplemented DMEM media in an atmosphere of 95% air and 5% CO2 at 37° C. In brief, LCC6, LCC6MDR and L929 cells were seeded into 96-well flat bottom microtiter plate at 1×10^4 cells per well in a final volume of 100 μL media, respectively. A graded dose of flavonoid dimers was added into wells. The plate was incubated at 37° C. for 72 hrs at the atmosphere 5% CO2 in the air. The % of survivors was determined.

A further series addresses Pgp (LCC6MDR cells) (Homo sapiens, UniProt P08183). Description: Cell proliferation assay: Pgp-modulating activity, reversal of anticancer drug resistance in LCC6MDR cells. The following applies: for EC50: EC50 of compounds for reversing anticancer drug resistance (nM), Paclitaxel; for EC50 / RF (Relative Fold), cpd at 0.5 μM: LCC6MDR; for Therapeutic index: IC50 of compounds for L929/EC50 of compounds for lowering paclitaxel drug resistance; for RF (Relative Fold), cpd at 0.5 μM: RF = (IC50 without modulator)/(IC50 with 0.5 μM modulator), paclitaxel.

For the next series, the system named is Leishmania promastigotes. Briefly: Anti-promastigote activity over the Leishmania strains. The class given is cell-based, Leishmania donovani, Leishmania major. The following applies: for IC50: different Leishmania strains, read-out: Anti-promastigote IC50, range over strains. As to the method: as §1, §2
[8] abbreviates: mouse, LCC6MDR and L929 cell lines.

Like-named read-outs stand apart in the source and are kept apart here. Bounds are passed on as bounds.

One may read the IC50 as the concentration that inhibits the measured activity by half. As usually defined, the EC50 is the concentration that produces a half-maximal response. A word on the melting point: it is the temperature, or range, at which the solid turns liquid.

Sequence of Pgp (LCC6MDR cells) (P08183 whole entry): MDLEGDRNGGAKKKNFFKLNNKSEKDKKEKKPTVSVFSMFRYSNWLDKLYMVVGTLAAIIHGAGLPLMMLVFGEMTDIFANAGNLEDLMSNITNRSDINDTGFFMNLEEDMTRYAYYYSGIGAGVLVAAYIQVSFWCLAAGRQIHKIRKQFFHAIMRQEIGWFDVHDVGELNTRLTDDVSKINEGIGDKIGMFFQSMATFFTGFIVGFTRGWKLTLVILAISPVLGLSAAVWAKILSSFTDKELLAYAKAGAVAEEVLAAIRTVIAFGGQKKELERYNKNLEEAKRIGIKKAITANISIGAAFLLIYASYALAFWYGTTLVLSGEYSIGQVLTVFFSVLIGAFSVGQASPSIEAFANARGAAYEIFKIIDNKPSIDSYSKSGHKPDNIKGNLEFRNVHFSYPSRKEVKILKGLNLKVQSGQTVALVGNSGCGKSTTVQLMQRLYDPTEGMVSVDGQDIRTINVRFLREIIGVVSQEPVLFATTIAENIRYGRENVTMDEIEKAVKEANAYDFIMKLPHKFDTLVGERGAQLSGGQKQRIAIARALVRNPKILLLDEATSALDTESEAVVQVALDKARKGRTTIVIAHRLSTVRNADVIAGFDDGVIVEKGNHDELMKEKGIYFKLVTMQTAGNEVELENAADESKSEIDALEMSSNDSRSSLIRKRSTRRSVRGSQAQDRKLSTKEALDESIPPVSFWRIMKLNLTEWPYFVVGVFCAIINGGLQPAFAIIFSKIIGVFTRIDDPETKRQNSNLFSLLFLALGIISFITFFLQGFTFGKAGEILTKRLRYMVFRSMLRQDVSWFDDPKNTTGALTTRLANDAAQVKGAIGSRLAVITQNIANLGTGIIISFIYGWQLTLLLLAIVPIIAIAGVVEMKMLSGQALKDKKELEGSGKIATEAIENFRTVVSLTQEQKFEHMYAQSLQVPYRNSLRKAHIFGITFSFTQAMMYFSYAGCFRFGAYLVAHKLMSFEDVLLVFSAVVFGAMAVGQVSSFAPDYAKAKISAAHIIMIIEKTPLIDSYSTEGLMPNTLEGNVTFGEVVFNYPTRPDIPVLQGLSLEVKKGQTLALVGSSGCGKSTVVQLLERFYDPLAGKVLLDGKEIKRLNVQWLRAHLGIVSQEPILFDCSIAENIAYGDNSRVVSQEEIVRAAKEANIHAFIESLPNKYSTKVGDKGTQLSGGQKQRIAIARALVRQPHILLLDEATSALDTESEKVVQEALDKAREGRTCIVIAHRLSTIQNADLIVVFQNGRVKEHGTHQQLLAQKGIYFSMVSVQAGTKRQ
Procedure for Ld39 amastigotes: Peritoneal elicited macrophages (PEM) from mouse were obtained as previously described. A round cover slip (12 mm in diameter) was placed into each well of 24-well culture plate. Mouse macrophages were resuspended in supplemented DMEM media containing 10% heat inactivated fetal bovine serum (v/v), 100 U/mL penicillin and 100 μg/mL streptomycin and seeded into each well at a cell density of 1×10^5 cells per 500 μL. Macrophages were allowed to attach overnight and the non-adherent cells were removed by gentle washing twice with unsupplemented DMEM media. […] Non-internalized promastigotes were removed by washing with unsupplemented DMEM media for two times. Infected macrophages were further incubated in 500 μL supplemented DMEM media in the presence or absence of flavonoid dimers or known antileishmanials for 72 hrs at 37° C. After incubation, the cover slips were stained with Giemsa and the amastigotes inside each macrophage (100 macrophages per treatment) were counted under microscope. The percentage of macrophages infected and number of amastigotes per 100 macrophages was enumerated.
The % of infected macrophage and the number of amastigotes per 100 macrophages were counted by staining with Giemsa.
Procedure for Pgp (LCC6MDR cells): Cell Proliferation Assay. 6,000 cells of LCC6 or LCC6MDR and anticancer drugs (paclitaxel, vinblastine, vincristine, doxorubicin and mitoxantrone) were mixed with or without modulators to a final volume of 200 μL in each well of 96-well plates. […] The plates were then incubated for 5 days at 37° C. […] IC50 values were calculated from the dose-response curves of MTS assays (Prism 4.0).

In the case of `C[C@@H]1[C@H](O)[C@@H](C)/C=C/C=C/C=C/C=C/C=C/C=C/C=C/[C@H](O[C@@H]2O[C@H](C)[C@@H](O)[C@H](N)[C@@H]2O)C[C@@H]2O[C@](O)(C[C@@H](O)C[C@@H](O)[C@H](O)CC[C@@H](O)C[C@@H](O)CC(=O)O[C@H]1C)C[C@H](O)[C@H]2C(=O)O` [Amphotericin B, amphotericin B, reference compound], the IC50 with Lm50122 promastigotes (3 days at 27° C., MTS) came out at 0.34 ± 0.06 µM; in the series on PEM cells, 7.4 µM; in series [1] (3 days at 27° C., MTS) it was 0.09 ± 0.02 µM; in the series on Raw264.7 cells (72 hrs), 12 µM; in the series on Ld39 amastigotes, 0.062 µM; in series [2] (3 days at 27° C., MTS), 0.095 ± 0.02 µM. Moreover, the IC50 in [3] (3 days at 27° C., MTS) came out at 0.051 µM.

Take `O=c1cc(-c2ccc(OCCOCCN(CCOCCOc3ccc(-c4cc(=O)c5ccccc5o4)cc3)Cc3ccccc3F)cc2)oc2ccccc12` [Compound 36, 1,13-Bis[4′-(4H-chromen-4-on-2-yl)phenyl]-7-(2-fluorobenzyl)-1,4,10,13-tetraoxa-7-azamidecane]: the melting point is 82 to 84 °C. Moreover, in series [4], the IC50 at 72 h is above 100 µM. Also, the IC50 at 72 h in series [5] is above 100 µM. Moreover, the IC50 at 72 h in series [6] is above 100 µM. The IC50 at 72 h in series [7] (setting [8]) was above 100 µM. On Pgp (LCC6MDR cells), the EC50 was determined as 179 ± 44 nM and the Therapeutic index is given as above 558.7.

`O=c1cc(-c2ccc(OCCOCCN(CCOCCOc3ccc(-c4cc(=O)c5ccccc5o4)cc3)Cc3cccc(F)c3)cc2)oc2ccccc12` [Compound 37, 1,13-Bis[4′-(4H-chromen-4-on-2-yl)phenyl]-7-(3-fluorobenzyl)-1,4,10,13-tetraoxa-7-azamidecane] had a melting point of 91 to 93 °C. Besides, the concentration for half-maximal inhibition (IC50) at 72 h in series [4] is above 100 µM. In addition, in series [5], the IC50 at 72 h is above 100 µM. In [6], this compound showed an IC50 at 72 h above 87 µM. The same compound returned an IC50 at 72 h in [7] (setting [8]) above 100 µM. In addition, at Pgp (LCC6MDR cells), the EC50 was 258 ± 103 nM and the Therapeutic index is above 337.2.

For the compound `COc1cccc2oc(-c3ccc(OCCOCCN(CCOCCOc4ccc(-c5cc(=O)c6c(OC)cccc6o5)cc4)C(=O)OC(C)(C)C)cc3)cc(=O)c12` [Compound 16d, 1,13-Bis[4′-((5-methoxy)-4H-chromen-4-on-2-yl)phenyl]-7-(tert-butyloxycarbonyl)-1,4,10,13-tetraoxa-7-azamidecane], the results for the IC50 at 72 h in series [4], in [5] and in [7] were 4.6 ± 0.2 µM, 5.4 ± 0.5 µM and below 8 µM, respectively. At Pgp (LCC6MDR cells), the “RF (Relative Fold), cpd at 0.5 μM” value is listed as “(14.9)”.

In the case of `O=c1cc(-c2ccc(OCCOCCN(CCOCCOc3ccc(-c4cc(=O)c5ccccc5o4)cc3)Cc3ccc([N+](=O)[O-])cc3)cc2)oc2ccccc12` [Compound 19, 1,13-Bis[4′-(4H-chromen-4-on-2-yl)phenyl]-N-(4-nitrobenzyl)-1,4,10,13-tetraoxa-7-azamidecane], the IC50 in the series on Lm50122 promastigotes (Leishmania major, 72 h) is above 100 µM; in [1] (Leishmania donovani, 72 h), above 100 µM; with Raw264.7 cells (Mus musculus, RAW264.7, 72 h), 70.3 ± 9.7 µM; in [2] (Leishmania donovani, 72 h) it was above 100 µM. Moreover, the IC50 at 72 h was 86.8 ± 1.8 µM in series [4], above 90 µM in series [5], 88 ± 6.1 µM in series [6] and above 90 µM in series [7] (setting [8]). Further, the EC50 on Pgp (LCC6MDR cells) is 189 ± 1 nM. Moreover, the Therapeutic index on Pgp (LCC6MDR cells) was determined as 465.6.

As for `O=c1cc(-c2ccc(OCCOCCN(CCOCCOc3ccc(-c4cc(=O)c5ccccc5o4)cc3)Cc3cc(F)c(F)c(F)c3)cc2)oc2ccccc12` [Compound 39, 1,13-Bis[4′-(4H-chromen-4-on-2-yl)phenyl]-7-(3,4,5-trifluorobenzyl)-1,4,10,13-tetraoxa-7-azamidecane], the IC50 at 72 h is above 75 µM in [4], above 100 µM in [5], above 100 µM in series [6] and above 100 µM in series [7] (setting [8]).

Take `O=c1cc(-c2ccc(OCCOCCN(CCOCCOc3ccc(-c4cc(=O)c5ccccc5o4)cc3)Cc3ccccn3)cc2)oc2ccccc12` [Compound 22, 1,13-Bis[4′-(4H-chromen-4-on-2-yl)phenyl]-N-(2-pyridylmethyl)-1,4,10,13-tetraoxa-7-azamidecane]: the “Fold lower leishmanicidal activity than compound 21” value in the series on Leishmania promastigotes is on record as “about 10 fold”. Moreover, the IC50 is 1.8 to 2.4 µM with Leishmania promastigotes; 1.8 ± 0.6 µM with Lm50122 promastigotes (Leishmania major, 72 h); 2.3 ± 0.8 µM in series [1] (Leishmania donovani, 72 h); 53 ± 12.7 µM in the series on Raw264.7 cells (Mus musculus, RAW264.7, 72 h); 2.4 ± 1 µM in series [2] (Leishmania donovani, 72 h). Moreover, the IC50 at 72 h in series [4] amounted to 10 ± 1.2 µM; in series [5], 29.7 ± 16.4 µM; in series [6], 10 µM. In addition, the “RF (Relative Fold), cpd at 0.5 μM” value on Pgp (LCC6MDR cells) was “(15.8)”.

On to `O=C1c2ccccc2C(=O)N1CCN(CCOCCOc1ccc(-c2cc(=O)c3ccccc3o2)cc1)CCOCCOc1ccc(-c2cc(=O)c3ccccc3o2)cc1` [Compound 23c, 1,13-Bis[4′-(4H-chromen-4-on-2-yl)phenyl]-7-[2-(1,3-dioxo-1,3-dihydro-2H-isoindol-2-yl)ethyl]-1,4,10,13-tetraoxa-7-azamidecane], for which the IC50 at 72 h in series [4] is 8.6 ± 3.4 µM; in series [5], 4.9 ± 0.1 µM; in [6], 17 ± 4.3 µM; in [7] (setting [8]), 4.9 to 8.6 µM. Moreover, on Pgp (LCC6MDR cells), the “RF (Relative Fold), cpd at 0.5 μM” value was “(9.6)”.

Regarding `O=c1cc(-c2ccc(OCCOCCNCCOCCOc3ccc(-c4cc(=O)c5ccccc5o4)cc3)cc2)oc2ccccc12` [Compound 12a, 1,13-Bis[4′-(4H-chromen-4-on-2-yl)phenyl]-1,4,10,13-tetraoxa-7-azamidecane], the IC50 in the series with Leishmania promastigotes is below 4 µM; in series [1] (Leishmania donovani, 72 h), 3.3 µM; in the series with Raw264.7 cells (72 hrs, listed as 12) it was 2.1 ± 0.9 µM; in the series on Raw264.7 cells (Mus musculus, RAW264.7, 72 h) it was below 4 µM; in series [2] (Leishmania donovani, 72 h) it was 2.3 µM; in series [3] (Leishmania donovani, 72 h) it was 1.1 µM. Besides, the IC50 at 72 h is 3.3 ± 1 µM in series [4], 2.4 ± 0.7 µM in series [5] and 5.9 ± 0.6 µM in [6]. Moreover, the EC50 on Pgp (LCC6MDR cells) was determined as 305 ± 35 nM. Besides, the Therapeutic index at Pgp (LCC6MDR cells) stood at 19.3. Besides, at Pgp (LCC6MDR cells), the “RF (Relative Fold), cpd at 0.5 μM” value is on record as “(72.9)”.
